Reference: patent publication US20240190904A1, “Heteroaryl compounds as inhibitors of RIP2 kinase, composition and application thereof” (Accro Bioscience (HK) Limited, priority 2021, published 2024)
≈ marks a conversion by molar mass, not a printed value.

Legend:
[1] = Protein binding test (dialysis), dog; type: in vitro ADME; conditions: for fraction unbound at 5 h, 1 μM: dog plasma
Method: (§1) • 1. Spiking Solutions of Test and Reference Compounds • 1.1 Solution A (0.5 mM): Add 10 μL of 10 mM stock solution into 190 μL of DMSO. • 1.2 Solution B (0.02 mM): Add 8 μL of Solution A into 192 μL of 0.05 M sodium phosphate buffer. The final DMSO concentration in Solution B is 4%. • 2. Preparation of Test and Reference Compounds • 2.1 Preload a 96-well plate with 380 μL aliquots of plasma in the wells designated for plasma and buffer, respectively. • 2.2 Spike 20 μL of Solution B (0.02 mM of test and reference compounds) into the pre-loaded plasma in the 96-well plate. The final test concentration is 1 μM containing 0.2% DMSO. • 3. Dialysis Sample Loading • 3.1 Preparing plasma against buffer system (duplicate): Apply aliquots of 100 μL of blank dialysis buffer to the receiver side of dialysis chambers. Then apply aliquots of 100 μL of the plasma spiked with test and reference compounds to the donor side of the dialysis chambers. • 3.2 Preparing T0 plasma samples for initial concentrations (duplicate): • 3.2.1 Aliquot 25 μL of the plasma spiked with test and reference compounds into a 96-well sample preparation plate as T0 plasma samples • 3.2.2 Mix the aliquots with same volume of blank buffer (50:50, v/v). • 3.2.3 Quench the samples with 200 μL of acetonitrile containing internal standard (IS). • 3.3 Cover the dialysis block with a plastic lid and place the entire apparatus in a shaker (60 rpm) for 5 hours at 37° C. • 3.4 Preparing dialyzed samples after 5-hour incubation: • 3.4.1 Aliquot 25 μL from both the donor sides and receiver sides of the dialysis apparatus into new sample preparation plates and mix the aliquots with same volume of opposite matrixes (blank buffer to plasma and vice versa). • 3.4.2 Quench the samples with 200 μL acetonitrile containing internal standard (IS). Vortex all the samples (from 0 h and 5 h) at 600 rpm for 10 min followed by centrifugation at 5594 g for 15 minutes (ThermoMultifuge×3R). • 3.4.3 Transfer 50 μL of the supernatants to a new 96-well plate and mix the samples with 50 μL of Milli-Q water. Cover the sample plate and store it in a freezer (−20° C.) until LC/MS/MS analysis.

[2] = test system: IL-8 in THP-1 induced by MDP; test: THP-1 cell assay, IL-8 ELISA after MDP; type: cell-based; conditions: Homo sapiens; test compounds 10 nM; THP-1, MDP induced
Method: Acute monoblastic and monocytic leukemia (THP-1) was obtained from ATCC (item NO. TIB-202™). The temperature of the sterile incubator is 37˜38° C., the osmotic pressure is 260˜320 mmol/L, the pH range is 7.2˜7.4, and the ratio of carbon dioxide gas is 5%.
Cells were seeded in 96-well plates. After an hour, cells were incubated with test compounds for 2 hours. MDP (10 μL) was added and incubated for 6 hours. The samples were centrifuged (3000 rmp/min) for 5 minutes. The concentration of IL-8 in the supernatants was detected by IL-8 ELISA.

[3] = Protein binding test (dialysis), human; type: in vitro ADME; conditions: for fraction unbound at 5 h, 1 μM: human plasma
Method: as §1

[4] = Protein binding test (dialysis), rat; type: in vitro ADME; conditions: for fraction unbound at 5 h, 1 μM: rat plasma
Method: as §1

[5] = test system: Caco-2; test: Caco-2 permeability test; type: in vitro ADME; conditions: Caco-2
Method: (§2) • 1. Prewarm HBSS Buffer in 37° C. water bath • 2. Take compounds from −20° C., sonicate for a few minutes (no less than 1 minute) • 3. Solution preparation
(§3) For A-to-B direction: • HBSS buffer with 0.3% DMSO and 5 μM LY: add 150 μL DMSO and 50 μL LY (5 mM) into 50 ml HBSS buffer (pH7.4). • HBSS buffer with 0.1% DMSO and 5 μM LY: add 50 μL DMSO and 50 μL LY (5 mM) into 50 mL HBSS buffer (pH7.4).
(§4) For B-to-A direction: • HBSS buffer with 0.3% DMSO: add 150 μL DMSO into 50 ml HBSS buffer (pH7.4) • HBSS buffer with 0.1% DMSO: add 50 μL DMSO into 50 ml HBSS buffer (pH7.4).
(§5) Receiver Solution Buffer:
(§6) Prepare HBSS buffer with 0.4% DMSO: add 200 μL DMSO into 50 ml HBSS buffer (pH7.4).
(§7) For B-to-A direction: • Prepare HBSS buffer with 0.4% DMSO and 5 uM LY: add 200 μL DMSO and 50 μL LY (5 mM) into 50 ml HBSS buffer (pH7.4).
(§8) Take cell culture plate out of incubator, wash the cell monolayers with HBSS buffer, and then measure TEER values at Rm temperature. • 5. Centrifuge the compound solution (from step 3) at 4000 rpm for 5 min before loading to donor chambers. • 6. Add solution based on the volumes listed in the following table (make sure to take extra 100 uL of donor sample for T0 as Backup).
(§9) • 7. To determine LY concentration in the apical chamber, take 100 μL sample from apical chambers into an opaque plate for LYT0. • 8. Prewarm apical and basolateral plates at 37° C. for about 5 min, then begin transport by placing the apical plate onto basolateral plate. • 9. Keep the plates in incubator at 37° C. for 90 min • 10. Prepare 20× solution
(§10) • 11. Separate the apical plate from the basolateral plate after 90-min incubation. • 12. Take 100 μL samples from basolateral plate to an opaque plate as LYT90. • 13. Measure LY concentrations for LYT0 and LYT90 by Fluorometer (at excitation of 485 nm/emission of 535 nm). • 14. Sample preparation for LC-MS/MS: Donor or receiver samples are diluted by 0.4% DMSO HBSS, then mix with ACN with IS (Osalmid or Imipramine)

[6] = Caco-2 permeability test; type: in vitro ADME; conditions: human, Caco-2, pH 7.4
Method: as §2, §3, §4, §5, §6, §7, §8, §9, §10

[7] = Thermodynamic solubility test; type: physicochemical; conditions: thermodynamic from solid; FaSSIF pH 6.5, thermodynamic
Method: • a. Add assay buffer into compound powder to make 4 mg/mL solution. • b. Sample tubes are shaken for 1 hour (1000 rpm), then equilibrated over night at room temperature. • c. Samples are centrifuged (10 min-12000 rpm) to precipitate un-dissolved particles. • d. Supernatants are transferred to new tubes. • e. Concentrations of the supernatants after centrifugation are determined by LCMSMS detection.

[8] = efflux ratio, read-out: Caco-2 Permeability B-A/A-B

Row | fraction unbound at 5 h, 1 μM [1] | fraction unbound at 5 h, 1 μM [3] | fraction unbound at 5 h, 1 μM [4] | efflux (in words) [5] | permeability (in words) [5] | Papp A→B at 90 min ([6]; A-B) [×10⁻⁶ cm/s] | Papp B→A at 90 min ([6]; B-A) [×10⁻⁶ cm/s] | efflux ratio at 90 min [6, 8] | solubility [7] [mM] | protein binding in dog (in words) ([1]; dog) | protein binding in human (in words) ([3]; human) | protein binding in rat (in words) ([4]; rat) | Papp A→B at 90 min, 2 μM ([6]; A-B, test at 2 μM) [×10⁻⁶ cm/s] | Papp B→A at 90 min, 2 μM ([6]; B-A, test at 2 μM) [×10⁻⁶ cm/s] | efflux ratio at 90 min, 2 μM ([6]; efflux ratio, test at 2 μM, read-out: Caco-2 Permeability B-A/A-B) | SMILES | inhibition at 0.01 µM [2] [%]
1 | 0.138 | 0.124 | 0.019 | no obvious efflux | high permeability | 15.2 | 33 | 2.18 | 6.12 (≈ 2340 µg/mL) | – | – | – | – | – | – | COc1cc2nccc(Nc3ccc4scnc4c3)c2cc1P(C)(C)=O [A6] | 50
2 | – | – | – | – | low | 0.5 | 10.2 | 20.5 | 5.31 (≈ 2200 µg/mL) | – | – | – | – | – | – | CP(C)(=O)c1cc2c(Nc3ccc4scnc4c3)ccnc2cc1OCCO [A7, (4-(benzo[d]thiazol-5-ylamino)-7-(2-hydroxyethoxy)quinolin-6-yl)dimethylphosphine oxide] | 25
3 | – | – | – | efflux substrate | favorable permeability | 11.9 | 35.6 | 2.98 | 1.04 (≈ 444 µg/mL) | – | – | – | – | – | – | COCCOc1cc2nccc(Nc3ccc4scnc4c3)c2cc1P(C)(C)=O [A8] | 51
4 | – | – | – | – | moderate | 7.85 | 46.5 | 5.92 | 0.283 (≈ 128 µg/mL) | – | – | – | – | – | – | CC1(COc2cc3nccc(Nc4ccc5scnc5c4)c3cc2P(C)(C)=O)COC1 [A9] | 55
5 | 0.165 | 0.177 | 0.073 | – | moderate | 7 | 35.9 | 5.13 | – | – | – | – | – | – | – | CP(C)(=O)c1cc2c(Nc3ccc4scnc4c3)ccnc2cc1O[C@H]1CCOC1 [A14] | –
6 | 0.129 | 0.188 | 0.059 | – | moderate | 5.36 | 35 | 6.53 | – | – | – | – | – | – | – | CP(C)(=O)c1cc2c(Nc3ccc4scnc4c3)ccnc2cc1O[C@@H]1CCOC1 [A15] | –
7 | 0.145 | 0.195 | 0.069 | – | low | 2.16 | 31.1 | 14.4 | – | – | – | – | – | – | – | CP(C)(=O)c1cc2c(Nc3ccc4scnc4c3)ccnc2cc1OC1COC1 [A16] | –
8 | 0.01 | 0.013 | 0.001 | no obvious efflux | high permeability | – | – | – | – | high protein binding | high protein binding | high protein binding | 16.9 | 26.6 | 1.58 | CP(C)(=O)c1cc2c(Nc3ccc4scnc4c3)ccnc2cc1OC(F)(F)F [A24] | –
